Results from patent US7446199B2, “Compositions useful as inhibitors of protein kinases” (Vertex Pharmaceuticals Incorporated, priority 2003, dated 2008).

Tests used:
[1] = molecular target: T1, FLT-3 (Homo sapiens, UniProt P36888); test: Inhibition of FLT-3, radiometric filter-binding assay; type: biochemical; conditions: 90 μM ATP, 0.5 mg/mL pE4Y, room temperature
T1 construct: 0.02% BSA and 3 nM FLT-3
T1 sequence (P36888 27-993): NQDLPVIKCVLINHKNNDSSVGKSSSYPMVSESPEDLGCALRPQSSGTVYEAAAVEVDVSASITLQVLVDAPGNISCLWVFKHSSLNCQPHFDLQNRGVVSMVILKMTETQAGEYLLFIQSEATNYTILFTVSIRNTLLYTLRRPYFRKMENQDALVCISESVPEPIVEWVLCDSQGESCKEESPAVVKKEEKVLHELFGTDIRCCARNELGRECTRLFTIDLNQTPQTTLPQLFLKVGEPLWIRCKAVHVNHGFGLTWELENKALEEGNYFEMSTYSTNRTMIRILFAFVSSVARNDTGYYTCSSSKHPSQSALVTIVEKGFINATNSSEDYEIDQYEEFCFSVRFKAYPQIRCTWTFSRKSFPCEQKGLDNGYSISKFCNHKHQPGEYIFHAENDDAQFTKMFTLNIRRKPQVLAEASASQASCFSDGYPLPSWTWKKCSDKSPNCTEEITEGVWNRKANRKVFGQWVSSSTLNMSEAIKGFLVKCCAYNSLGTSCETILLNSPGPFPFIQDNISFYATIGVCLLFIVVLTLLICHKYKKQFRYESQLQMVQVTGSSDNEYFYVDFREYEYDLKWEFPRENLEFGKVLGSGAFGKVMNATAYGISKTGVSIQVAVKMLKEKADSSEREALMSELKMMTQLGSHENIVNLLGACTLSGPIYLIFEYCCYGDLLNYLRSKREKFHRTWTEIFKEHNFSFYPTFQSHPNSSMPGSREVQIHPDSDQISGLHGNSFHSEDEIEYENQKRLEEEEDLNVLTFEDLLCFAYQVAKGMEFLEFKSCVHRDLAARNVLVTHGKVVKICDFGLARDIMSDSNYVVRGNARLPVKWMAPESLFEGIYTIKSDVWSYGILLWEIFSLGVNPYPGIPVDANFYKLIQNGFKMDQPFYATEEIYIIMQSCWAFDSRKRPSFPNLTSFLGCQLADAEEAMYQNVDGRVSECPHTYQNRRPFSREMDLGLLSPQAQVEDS
Procedure, shortened: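 Radiometric filter-binding assay of FLT-3 (3 nM in Solution 2; final conc not stated) phosphorylating poly(Glu,Tyr) 4:1 (0.5 mg/mL) with 90 μM ATP plus [γ-33P]ATP, in HEPES pH 7.5, MgCl2, NaCl, DTT, BSA, 2.5% DMSO. 12-point titration, typically 0.01–5 μM, 20 min at room temperature; TCA-stopped, filtered, scintillation-counted; IC50 or Ki fitted.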

[2] = molecular target: GSK-3β, (AA 1-420) (Homo sapiens, UniProt P49841); test: GSK-3 inhibition assay, coupled enzyme system; type: biochemical; conditions: 20 μM ATP, 300 μM peptide, 20 nM GSK-3b, 30° C.; read-out: Ki values (GSK3)
GSK-3β, (AA 1-420), sequence (P49841 whole entry, the tested form may be a part): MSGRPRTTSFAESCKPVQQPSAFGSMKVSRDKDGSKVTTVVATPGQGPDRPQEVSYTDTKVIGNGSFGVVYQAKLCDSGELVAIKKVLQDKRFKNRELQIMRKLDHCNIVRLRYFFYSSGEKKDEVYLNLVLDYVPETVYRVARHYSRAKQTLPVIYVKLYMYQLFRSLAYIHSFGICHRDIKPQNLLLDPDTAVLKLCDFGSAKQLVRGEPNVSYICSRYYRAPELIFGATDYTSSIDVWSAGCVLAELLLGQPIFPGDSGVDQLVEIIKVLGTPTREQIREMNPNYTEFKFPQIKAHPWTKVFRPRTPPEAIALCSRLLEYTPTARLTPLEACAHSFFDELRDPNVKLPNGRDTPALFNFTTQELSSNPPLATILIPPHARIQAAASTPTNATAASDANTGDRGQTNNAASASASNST
Procedure, shortened: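 Pyruvate kinase/lactate dehydrogenase-coupled NADH assay with 20 nM enzyme, 20 μM ATP and 300 μM peptide in HEPES pH 7.5, 1.5% DMSO, 30° C. Compound (0.002–30 μM, 12-point) preincubated 10 min before ATP start; rates over 10 min gave Ki.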

Cc1noc(-c2c[nH]c3ncccc23)c1-c1cccc(F)c1F [Compound 134, 3-[4-(2,3-Difluoro-phenyl)-3-methyl-isoxazol-5-yl]-1H-pyrrolo[2,3-b]pyridine]
Ki [1]: < 0.2 µM | Ki [2]: 0.2 to 1 µM

Fc1cccc(-c2cnoc2-c2c[nH]c3ncc(C4=CCC(NCc5ccccc5)CC4)cc23)c1F (stereo not drawn) [Compound 136, Benzyl-(4-{3-[4-(2,3-difluoro-phenyl)-isoxazol-5-yl]-1H-pyrrolo[2,3-b]pyridin-5-yl}-cyclohex-3-enyl)-amine]
Ki [1]: 0.2 to 1 µM | Ki [2]: 0.2 to 1 µM

NC1CC=C(c2cnc3[nH]cc(-c4oncc4-c4cccc(F)c4F)c3c2)CC1 (stereo not drawn) [Compound 137, 4-{3-[4-(2,3-Difluoro-phenyl)-isoxazol-5-yl]-1H-pyrrolo [2,3-b]pyridin-5-yl}-cyclohex-3-enylamine]
Ki [1]: < 0.2 µM | Ki [2]: < 0.2 µM

CN(C)C1CC=C(c2cnc3[nH]cc(-c4oncc4-c4cccc(F)c4F)c3c2)CC1 (stereo not drawn) [Compound 138, (4-{3-[4-(2,3-Difluoro-phenyl)-isoxazol-5-yl]-1H-pyrrolo[2,3-b]pyridin-5-yl}-cyclohex-3-enyl)-dimethyl-amine]
Ki [1]: < 0.2 µM | Ki [2]: < 0.2 µM

Fc1cccc(-c2cnoc2-c2c[nH]c3ncc(C4=CCC(N5CCOCC5)CC4)cc23)c1F (stereo not drawn) [Compound 139, 3-[4-(2,3-Difluoro-phenyl)-isoxazol-5-yl]-5-(4-morpholin-4-yl-cyclohex-1-enyl)-1H-pyrrolo[2,3-b]pyridine]
Ki [1]: < 0.2 µM | Ki [2]: < 0.2 µM

CS(=O)(=O)NC1CC=C(c2cnc3[nH]cc(-c4oncc4-c4cccc(F)c4F)c3c2)CC1 (stereo not drawn) [Compound 140, N-(4-{3-[4-(2,3-Difluoro-phenyl)-isoxazol-5-yl]-1H-pyrrolo[2,3-b]pyridin-5-yl}-cyclohex-3-enyl)-methanesulfonamide]
Ki [1]: < 0.2 µM | Ki [2]: < 0.2 µM
